Calls of active or inactive are those of the source. The rule behind the calls is not given here.

In assay [1] the test system is HCT-116. Put plainly: Induction of morphological changes in human HCT-116 cells assessed as cell detachment at 3.32 to 13.28 uM measured after 48 hrs by phase contrast microscope. The assay is classed as functional, cell-based. The following applies: dose 3.32-13.28 µM.
Assay [2] concerns HCT-116. The assay is described as follows: Induction of nuclear morphological changes in human HCT-116 cells assessed as change in nuclear shape measured after 48 hrs by DAPI-staining based fluorescence microscopic analysis. The format is functional, cell-based.
For assay [3], the system named is HCT-116. Put plainly: Induction of nuclear morphological changes in human HCT-116 cells assessed as horseshoe shaped nuclei formation measured after 48 hrs by DAPI-staining based fluorescence microscopic analysis. The assay is classed as functional, cell-based.
Assay [4] has as its system HCT-116. Put plainly: Induction of ROS production in human HCT-116 cells at 3.32 uM incubated for 72 hrs by DCFDA staining based fluorescence microscopic analysis. The assay is classed as functional, cell-based.
Assay [5] has as its system HCT-116. Put plainly: Inhibition of cell invasion in human HCT-116 cells at 3.32 to 13.28 uM measured after 48 hrs by phase contrast microscopic analysis. The assay is classed as functional, cell-based. The following applies: dose 3.32-13.28 µM.
The test system of assay [6] is Cell membrane. Put plainly: Induction of mitochondrial membrane potential loss in human HCT-116 cells assessed as polarized cells at 3.32 uM incubated for 72 hrs by JC-1 staining based flow cytometry analysis (reference value: 99.6 %). The format is subcellular.
The subject of assay [7] is Cell membrane. The assay is described as follows: Induction of mitochondrial membrane potential loss in human HCT-116 cells assessed as polarized cells at 13.28 uM incubated for 72 hrs by JC-1 staining based flow cytometry analysis (reference value: 99.6 %). The assay is classed as subcellular.
The subject of assay [8] is HCT-116. The assay is described as follows: Induction of apoptosis in human HCT-116 cells assessed as late apoptotic cells at 3.32 uM incubated for 24 hrs by Annexin V-FITC/PI staining based flow cytometry analysis (Rvb= 0.1%). The assay is classed as functional. For orientation: A flow cytometer gives signals particle by particle.
Assay [9] has as its system HCT-116. Put plainly: Induction of apoptosis in human HCT-116 cells assessed as late apoptotic cells at 13.28 uM incubated for 24 hrs by Annexin V-FITC/PI staining based flow cytometry analysis (Rvb= 0.1%). The format is functional.
Assay [10] relates to HCT-116. Put plainly: Induction of apoptosis in human HCT-116 cells assessed as necrotic cells at 3.32 uM incubated for 24 hrs by Annexin V-FITC/PI staining based flow cytometry analysis (Rvb= 0.0%). The assay is classed as functional.
Assay [11] concerns HCT-116. Put plainly: Cell cycle arrest in human HCT-116 cells assessed as accumulation of cells in sub-G1 phase at 6.64 uM measured after 48 hrs by PI staining based flow cytometry method (reference value: 4.6%). The format is functional.
Assay [12] has as its system HCT-116. The assay is described as follows: Cell cycle arrest in human HCT-116 cells assessed as accumulation of cells in sub-G1 phase at 13.28 uM measured after 48 hrs by PI staining based flow cytometry method (reference value: 4.6%). The assay is classed as functional.
In assay [13] the test system is HCT-116. Put plainly: Cell cycle arrest in human HCT-116 cells assessed as accumulation of cells in G0/G1 phase at 6.64 uM measured after 48 hrs by PI staining based flow cytometry method (reference value: 79%). The assay is classed as functional.
In the next assay the target is Tubulin. The assay is described as follows: Inhibition of tubulin polymerization (unknown origin) by absorbance based analysis. The format is protein-complex assay, Homo sapiens.

As a reminder, the IC50 is the concentration at which inhibition is half-maximal. Turning to `CC(C)(C)S(=O)(=O)NCC1(Sc2nc3ccccc3[nH]2)C(=O)N(Cc2ccc(Br)cc2)c2ccccc21` (centres undefined), the outcome in the assay on HCT-116 [1] and with HCT-116 [4] was Active. The Activity entry with HCT-116 [2] was “Dose-Dependent Effect”; in the assay with HCT-116 [3] it was “Dose-Dependent Effect”; in the assay with Cell membrane [6], 97%; with Cell membrane [7], 86.7%; with HCT-116 [8] it was 53.4%; with HCT-116 [9], 84.1%. For the same compound, the Activity with HCT-116 [10] came to 0.3%; with HCT-116 [11] it was 27.4%; in the assay on HCT-116 [12], 32.3%; in the assay with HCT-116 [13], 49.2%. Besides, in the assay with HCT-116 [5], the inhibition entry is “Active”. At Tubulin, inhibition was half-maximal at 9.73 µM (IC50).

The record behind these values is ChEMBL document CHEMBL5325462, “Regioselective synthesis and in vitro cytotoxicity evaluation of 3-thiooxindole derivatives: Tubulin polymerization inhibition and apoptosis inducing studies” (Bioorg Med Chem, 2023).
